Assay results published in patent publication US20240270762A1, “PENICILLIN-BINDING PROTEIN INHIBITORS” (priority 2021, published 2024).
In brackets after ≈: the same amount, converted by molar mass.

Tests used:
P. aeruginosa CDC-0110 = experiment: microbe, parasite or virus in culture; type: cell-based; settings: Pseudomonas aeruginosa, CDC0110, read-out: Minimum inhibitory concentration, P. aeruginosa CDC-0110
P. aeruginosa CDC-0054 = experiment: microbe, parasite or virus in culture; type: cell-based; settings: Pseudomonas aeruginosa, CDC0054, read-out: Minimum inhibitory concentration, P. aeruginosa CDC-0054
A. baumannii CDC-0083 = experiment: microbe, parasite or virus in culture; type: cell-based; settings: Acinetobacter baumannii, CDC0083, read-out: MIC, A. baumannii CDC-0083
[1] = target: T1, PBP3 from Pseudomonas aeruginosa (PAO1) (Pseudomonas aeruginosa, UniProt G3XD46); experiment: Bocillin-FL fluorescence polarization competition binding, P. aeruginosa PBP3; settings: Binding affinity to P. aeruginosa PBP3; fluorescence polarization competition binding assay using Bocillin-FL; read-out: P. aeruginosa PBP3 Potency
T1 construct: made in house
Procedure, shortened: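 Purified PBPs pre-incubated with inhibitor (E. coli PBP3 1.5 μM, 30 min; P. aeruginosa PBP3 0.75 μM, A. baumannii PBP1a 1 μM and PBP3 0.2 μM, 15 min), then Bocillin-FL 0.1 μM (0.05 μM for PBP1a) added; FP read up to 60 min. EC50 = concentration halving bound Bocillin-FL.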

A. baumannii PBP1a = target: T2, A. baumannii PBP1a (Acinetobacter baumannii, UniProt A0ABX6CK30); experiment: Bocillin-FL competition binding via gel filtration, A. baumannii PBP1a; settings: competition binding assay using Bocillin-FL via gel filtration; read-out: A. baumannii PBP1a Potency
T2 sequence (A0ABX6CK30 1-851): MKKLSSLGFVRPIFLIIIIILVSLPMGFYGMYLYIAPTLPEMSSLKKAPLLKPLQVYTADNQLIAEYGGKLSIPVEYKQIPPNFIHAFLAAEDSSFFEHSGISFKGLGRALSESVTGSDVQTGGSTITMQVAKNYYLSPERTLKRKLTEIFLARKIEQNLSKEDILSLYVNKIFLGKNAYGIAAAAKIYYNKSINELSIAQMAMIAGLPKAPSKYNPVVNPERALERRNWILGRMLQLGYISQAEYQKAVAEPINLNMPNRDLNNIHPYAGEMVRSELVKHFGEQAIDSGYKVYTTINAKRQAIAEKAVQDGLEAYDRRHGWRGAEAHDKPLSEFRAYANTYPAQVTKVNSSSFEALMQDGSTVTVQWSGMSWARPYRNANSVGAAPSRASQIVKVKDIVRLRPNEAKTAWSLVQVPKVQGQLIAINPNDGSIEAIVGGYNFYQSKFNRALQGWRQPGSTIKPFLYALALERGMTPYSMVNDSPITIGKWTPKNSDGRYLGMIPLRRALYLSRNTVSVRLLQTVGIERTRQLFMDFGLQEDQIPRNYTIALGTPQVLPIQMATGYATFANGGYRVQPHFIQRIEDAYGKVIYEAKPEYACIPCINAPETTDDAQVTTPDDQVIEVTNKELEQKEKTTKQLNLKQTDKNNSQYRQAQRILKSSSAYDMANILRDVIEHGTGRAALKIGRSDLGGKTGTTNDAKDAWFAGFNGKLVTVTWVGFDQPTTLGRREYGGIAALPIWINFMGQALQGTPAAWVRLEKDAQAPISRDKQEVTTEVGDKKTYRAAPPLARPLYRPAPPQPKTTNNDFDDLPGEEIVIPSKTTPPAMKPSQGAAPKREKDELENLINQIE
Procedure, shortened: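 Enzyme pre-incubated with increasing inhibitor concentrations, then Bocillin-FL added for 15 min further incubation. Bocillin-FL-bound PBP separated by gel filtration and fluorescence read. EC50 from fitting fraction PBP bound vs inhibitor concentration to a Hill-type equation (ymin, ymax, n).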

T1 sequence (G3XD46 whole entry): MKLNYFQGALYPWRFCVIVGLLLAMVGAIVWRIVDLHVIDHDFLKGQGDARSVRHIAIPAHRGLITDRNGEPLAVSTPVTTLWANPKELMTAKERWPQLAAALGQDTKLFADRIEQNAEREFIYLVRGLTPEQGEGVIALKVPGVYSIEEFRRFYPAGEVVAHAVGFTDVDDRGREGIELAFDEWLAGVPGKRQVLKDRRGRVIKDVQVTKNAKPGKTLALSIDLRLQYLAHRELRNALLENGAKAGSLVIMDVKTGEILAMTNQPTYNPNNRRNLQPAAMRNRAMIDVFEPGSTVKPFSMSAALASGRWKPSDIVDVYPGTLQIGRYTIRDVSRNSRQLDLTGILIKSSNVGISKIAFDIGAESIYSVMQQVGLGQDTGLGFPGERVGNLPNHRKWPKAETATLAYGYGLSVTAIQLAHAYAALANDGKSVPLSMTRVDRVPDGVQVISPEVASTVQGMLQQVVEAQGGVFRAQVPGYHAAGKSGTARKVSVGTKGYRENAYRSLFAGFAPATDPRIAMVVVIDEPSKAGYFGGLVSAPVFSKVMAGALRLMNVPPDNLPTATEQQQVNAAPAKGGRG

| Compound | MIC (P. aeruginosa CDC-0110) [µg/mL] | MIC (P. aeruginosa CDC-0054) [µg/mL] | MIC (A. baumannii CDC-0083) [µg/mL] | IC50 [1] [µM] | EC50 (A. baumannii PBP1a) [µM] |
| --- | --- | --- | --- | --- | --- |
| O=C(NCCCN1CCN(C(=O)NC(C(=O)N[C@H]2Cc3ccc(F)c(C(=O)O)c3OB2O)c2cc(F)c(O)c(O)c2Cl)C(=O)C1=O)c1c(F)ccc(O)c1Cl (stereo partly drawn) [Example 414, (3R)-3-(2-(2-chloro-5-fluoro-3,4-dihydroxyphenyl)-2-(4-(3-(2-chloro-6-fluoro-3-hydroxybenzamido)propyl)-2,3-dioxopiperazine-1-carboxamido)acetamido)-7-fluoro-2-hydroxy-3,4-dihydro-2H-benzo[e][1,2]oxaborinine-8-carboxylic acid] | < 1 | < 1 | 2 to 4 (≈ 2.46 to 4.92 µM) | < 10 | < 10 |
| O=C(NCCCN1CCN(C(=O)NC(C(=O)N[C@H]2Cc3ccc(F)c(C(=O)O)c3OB2O)c2cc(F)c(O)c(O)c2Cl)C(=O)C1=O)c1cc(O)c(F)c(O)c1F (stereo partly drawn) [Example 415, (3R)-3-(2-(2-chloro-5-fluoro-3,4-dihydroxyphenyl)-2-(4-(3-(2,4-difluoro-3,5-dihydroxybenzamido)propyl)-2,3-dioxopiperazine-1-carboxamido)acetamido)-7-fluoro-2-hydroxy-3,4-dihydro-2H-benzo[e][1,2]oxaborinine-8-carboxylic acid] | < 1 | < 1 | 2 to 4 (≈ 2.46 to 4.93 µM) | < 10 | < 10 |
| O=C(NCCCN1CCN(C(=O)NC(C(=O)N[C@H]2Cc3ccc(F)c(C(=O)O)c3OB2O)c2cc(F)c(O)c(O)c2Cl)C(=O)C1=O)c1cc(O)c(F)c(O)c1 (stereo partly drawn) [Example 416, (3R)-3-(2-(2-chloro-5-fluoro-3,4-dihydroxyphenyl)-2-(4-(3-(4-fluoro-3,5-dihydroxybenzamido)propyl)-2,3-dioxopiperazine-1-carboxamido)acetamido)-7-fluoro-2-hydroxy-3,4-dihydro-2H-benzo[e][1,2]oxaborinine-8-carboxylic acid] | < 1 | < 1 | < 1 | < 10 | < 10 |
| O=C(NCCCN1CCN(C(=O)NC(C(=O)N[C@H]2Cc3ccc(F)c(C(=O)O)c3OB2O)c2cc(F)c(O)c(O)c2Cl)C(=O)C1=O)c1ccc(O)c(F)c1Cl (stereo partly drawn) [Example 418, (3R)-3-(2-(4-(3-(2-chloro-3-fluoro-4-hydroxybenzamido)propyl)-2,3-dioxopiperazine-1-carboxamido)-2-(2-chloro-5-fluoro-3,4-dihydroxyphenyl)acetamido)-7-fluoro-2-hydroxy-3,4-dihydro-2H-benzo[e][1,2]oxaborinine-8-carboxylic acid] | < 1 | < 1 | > 128 | < 10 | < 10 |
| O=C(NCCCN1CCN(C(=O)NC(C(=O)N[C@H]2Cc3ccc(F)c(C(=O)O)c3OB2O)c2cc(F)c(O)c(O)c2Cl)C(=O)C1=O)c1ccc(O)c(Cl)c1F (stereo partly drawn) [Example 419, (3R)-3-(2-(4-(3-(3-chloro-2-fluoro-4-hydroxybenzamido)propyl)-2,3-dioxopiperazine-1-carboxamido)-2-(2-chloro-5-fluoro-3,4-dihydroxyphenyl)acetamido)-7-fluoro-2-hydroxy-3,4-dihydro-2H-benzo[e][1,2]oxaborinine-8-carboxylic acid] | < 1 | 2 to 4 (≈ 2.46 to 4.92 µM) | > 128 | < 10 | < 10 |
| O=C(NCCCN1CCN(C(=O)NC(C(=O)N[C@H]2Cc3ccc(F)c(C(=O)O)c3OB2O)c2cc(F)c(O)c(O)c2Cl)C(=O)C1=O)c1c(F)cc(O)cc1Cl (stereo partly drawn) [Example 421, (3R)-3-(2-(2-chloro-5-fluoro-3,4-dihydroxyphenyl)-2-(4-(3-(2-chloro-6-fluoro-4-hydroxybenzamido)propyl)-2,3-dioxopiperazine-1-carboxamido)acetamido)-7-fluoro-2-hydroxy-3,4-dihydro-2H-benzo[e][1,2]oxaborinine-8-carboxylic acid] | < 1 | < 1 | > 128 | < 10 | < 10 |
| O=C(NCCCN1CCN(C(=O)N[C@@H](C(=O)N[C@H]2Cc3ccc(F)c(C(=O)O)c3OB2O)c2cc(F)c(O)c(O)c2Cl)C(=O)C1=O)c1cc(F)c(O)c(F)c1 [Example 422, (R)-3-((R)-2-(2-chloro-5-fluoro-3,4-dihydroxyphenyl)-2-(4-(3-(3,5-difluoro-4-hydroxybenzamido)propyl)-2,3-dioxopiperazine-1-carboxamido)acetamido)-7-fluoro-2-hydroxy-3,4-dihydro-2H-benzo[e][1,2]oxaborinine-8-carboxylic acid] | < 1 | < 1 | > 128 | < 10 | < 10 |
| O=C(NCCCN1CCN(C(=O)NC(C(=O)N[C@H]2Cc3ccc(F)c(C(=O)O)c3OB2O)c2cc(F)c(O)c(O)c2Cl)C(=O)C1=O)c1cc(O)cc(O)c1 (stereo partly drawn) [Example 423, (3R)-3-(2-(2-chloro-5-fluoro-3,4-dihydroxyphenyl)-2-(4-(3-(3,5-dihydroxybenzamido)propyl)-2,3-dioxopiperazine-1-carboxamido)acetamido)-7-fluoro-2-hydroxy-3,4-dihydro-2H-benzo[e][1,2]oxaborinine-8-carboxylic acid] | < 1 | < 1 | > 128 | < 10 | < 10 |
| O=C(O)c1c(F)ccc2c1OB(O)[C@@H](NC(=O)C(NC(=O)N1CCN(C3CCN(C(=O)Nc4cccc(O)c4)CC3)C(=O)C1=O)c1cc(F)c(O)c(O)c1Cl)C2 (stereo partly drawn) [Example 424, (3R)-3-(2-(2-chloro-5-fluoro-3,4-dihydroxyphenyl)-2-(4-(1-((3-hydroxyphenyl)carbamoyl)piperidin-4-yl)-2,3-dioxopiperazine-1-carboxamido)acetamido)-7-fluoro-2-hydroxy-3,4-dihydro-2H-benzo[e][1,2]oxaborinine-8-carboxylic acid] | < 1 | < 1 | 2 to 4 (≈ 2.5 to 4.99 µM) | < 10 | < 10 |
| O=C(O)c1c(F)ccc2c1OB(O)[C@@H](NC(=O)C(NC(=O)N1CCN(C3CCN(C(=O)c4cncc(O)c4)CC3)C(=O)C1=O)c1cc(F)c(O)c(O)c1Cl)C2 (stereo partly drawn) [Example 425, (3R)-3-(2-(2-chloro-5-fluoro-3,4-dihydroxyphenyl)-2-(4-(1-(5-hydroxynicotinoyl)piperidin-4-yl)-2,3-dioxopiperazine-1-carboxamido)acetamido)-7-fluoro-2-hydroxy-3,4-dihydro-2H-benzo[e][1,2]oxaborinine-8-carboxylic acid] | < 1 | < 1 | 8 to 16 (≈ 10.2 to 20.3 µM) | < 10 | 10 to 50 |
| O=C(O)c1c(F)ccc2c1OB(O)[C@@H](NC(=O)C(NC(=O)N1CCN(C3CCN(S(=O)(=O)c4cccc(O)c4)CC3)C(=O)C1=O)c1cc(F)c(O)c(O)c1Cl)C2 (stereo partly drawn) [Example 428, (3R)-3-(2-(2-chloro-5-fluoro-3,4-dihydroxyphenyl)-2-(4-(1-((3-hydroxyphenyl)sulfonyl)piperidin-4-yl)-2,3-dioxopiperazine-1-carboxamido)acetamido)-7-fluoro-2-hydroxy-3,4-dihydro-2H-benzo[e][1,2]oxaborinine-8-carboxylic acid] | < 1 | < 1 | 8 to 16 (≈ 9.73 to 19.5 µM) | < 10 | < 10 |
| O=C(O)c1c(F)ccc2c1OB(O)[C@@H](NC(=O)C(NC(=O)N1CCN(C3CCN(S(=O)(=O)c4ccc(O)cc4)CC3)C(=O)C1=O)c1cc(F)c(O)c(O)c1Cl)C2 (stereo partly drawn) [Example 429, (3R)-3-(2-(2-chloro-5-fluoro-3,4-dihydroxyphenyl)-2-(4-(1-((4-hydroxyphenyl)sulfonyl)piperidin-4-yl)-2,3-dioxopiperazine-1-carboxamido)acetamido)-7-fluoro-2-hydroxy-3,4-dihydro-2H-benzo[e][1,2]oxaborinine-8-carboxylic acid] | < 1 | < 1 | 8 to 16 (≈ 9.73 to 19.5 µM) | < 10 | < 10 |
